From patent publication US8759340B2, “Benzodiazepinone compounds useful in the treatment of skin conditions” (The Regents of the University of Michigan, priority 2007, dated 2014)
Entries after “also recorded” stand apart in the source; their conditions may differ.

Key:
[1] = tested on: RA-induced epidermal hyperplasia; assay: Inhibition of RA-induced epidermal hyperplasia in human skin organ cultures; format: cell-based; conditions: for Percent Reduction in Retinoid-Induced Hyperplasia (%): reduction in epidermal thickness vs RA alone, n=3
Excerpt: (§1) Replicate 6-mm punch biopsies of full-thickness psoriatic plaque skin were obtained from human skin donors with psoriasis. These biopsies were used in the transplant studies. Six-mm punch biopsies of sun-protected (hip) skin from non-psoriatic donors were obtained as controls. In addition, replicate 2-mm full-thickness punch biopsies of sun-protected hip skin were obtained from normal donors for use in organ culture studies.
(§2) Immediately upon biopsy, the replicate 2-mm punch biopsies (non-psoriatic skin only) were immersed in culture medium consisting of Keratinocyte Basal Medium (KBM) (Lonza, Walkersville, Md.). KBM is a low-Ca^2+, serum-free modification of MCDB-153 medium. It was supplemented with CaCl2 to bring the final Ca^2+ concentration to 1.4 mM. Biopsies were incubated in wells of a 24-well dish containing 400 μl of Ca^2+-supplemented KBM with or without additional treatments (RA and/or Compound H). Cultures were incubated at 37° C. in an atmosphere of 95% air and 5% CO2. Other than to maintain the tissue in a minimal volume of medium, nothing further was done to ensure a strict air-liquid interface. Incubation was for 8 days, with change of medium and fresh treatments provided every second day. At the end of the incubation period, tissue was fixed in 10% buffered formalin and examined histologically after staining with hematoxylin and eosin. Routinely, 3-6 tissue sections were prepared from each block. Epidermal thickness measurements were made at several sites in each tissue section (distance from the dermal-epidermal juncture to the top of the viable portion of the epithelium). The organ culture procedure employed here has been described in the past (Varani et al. (1993) Amer. J. Pathol. 142:189-198; and Varani et al., (1994) J. Clin. Invest. 94:1747-1753). In order to evaluate the toxicity of compound H, tissue was examined histologically and necrosis was assessed on a 0 to 4+ scale, with 0 indicating no change from control and 4+ indicating complete necrosis of the epidermis (n=6). Scores ≦1 were taken as normal.
The average epidermal thickness in the absence of RA was 70-90 μm, while the average epidermal thickness was 275 μm in cells exposed to RA.

[2] = tested on: Ramos cells; assay: Cytotoxicity against Ramos cells; format: cell-based; conditions: Homo sapiens, read-out: EC50 in causing death of Ramos cells
Excerpt: The compounds described herein can be tested for activity against F1F0-ATPase by measuring ATP synthesis and ATP hydrolysis. In addition, the compounds described herein can be evaluated for cytotoxicity against Ramos cells. Inhibition of ATP synthesis and hydrolysis by the F1F0-ATPase and cytotoxicity in Ramos cells can be measured as described in K. M. Johnson et al. in Chemistry & Biology (2005) Vol. 12, pp. 485-496.

[3] = tested on: human foreskin fibroblasts (HFF); assay: Fibroblast proliferation assay; format: cell-based; conditions: Homo sapiens; for inhibition at 1 µM / inhibition at 0.05 µM / inhibition at 0.1 µM / inhibition at 0.5 µM / inhibition at 5 µM / inhibition at 10 µM: 48 h, HFF, day 2, read-out: Percent Inhibition of Cells Per Concentration of Test Compound
Experimental: Fibroblasts obtained from the same tissue were grown in monolayer culture using Dulbecco's modified minimal essential medium supplemented with nonessential amino acids and 10% fetal bovine serum (DMEM-FBS) as culture medium. Both keratinocytes and fibroblasts were maintained at 37° C. in an atmosphere of 95% air and 5% CO2. Cells were subcultured by exposure to trypsin/ethylenediamine tetraacetic acid (EDTA) and used at passage 2-4.
(§3) Keratinocyte proliferation was assessed by seeding 4×10^4 cells per well in a 24-well plate using KGM as culture medium. After the cells had attached (overnight), they were washed and triplicate samples were harvested for zero-time counts. DMSO served as a negative control. Proliferation was measured on day 2 by releasing the cells with trypsin/EDTA and enumerating them using a particle counter (Coulter Electronics, Hialeah, Fla.). Fibroblast proliferation studies were conducted in a similar manner except that […] was used as culture medium.
(§4) KC refers to human keratinocytes. HFF refers to human foreskin fibroblasts. The cLogP values were calculated using ChemDraw™ (CambridgeSoft).

[4] = tested on: human keratinocytes (KC); assay: Keratinocyte proliferation assay; format: cell-based; conditions: Homo sapiens, Keratinocyte; for inhibition at 0.05 µM / inhibition at 0.1 µM / inhibition at 0.5 µM / inhibition at 1 µM / inhibition at 5 µM / inhibition at 10 µM: 48 h, KC, day 2, read-out: Percent Inhibition of Cells Per Concentration of Test Compound
Experimental: Epidermal keratinocytes were isolated from fresh tissue biopsies as described previously (Varani et al., (1994) J. Clin. Invest. 94:1747-1753). Primary and early passage cells were maintained in Keratinocyte Growth Medium (KGM) (Lonza). KGM contains the same basal medium as KBM but is further supplemented with a mixture of growth factors including 0.1 ng per mL EGF, 0.5 μg per mL insulin, and 0.4% bovine pituitary extract. In addition to using low-passage keratinocytes, we also used the HaCat line of immortalized human epidermal keratinocytes in some experiments. The immortalized keratinocytes were handled exactly as low-passage keratinocytes.
as §3, §4

[5] = tested on: Human Skin Organ Cultures; assay: Toxicity (epidermal necrosis) in human skin organ cultures; format: cell-based; conditions: necrosis on 0 to 4+ scale, scores ≦1 normal, 8 days organ culture, n=6
Excerpt: as §1, §2

SMILES	inhibition at 1 µM [3]	inhibition at 0.05 µM ([3]; Fibroblast)	inhibition at 0.1 µM ([3]; Fibroblast)	inhibition at 0.5 µM ([3]; Fibroblast)	inhibition at 5 µM ([3]; Fibroblast)	inhibition at 10 µM ([3]; Fibroblast)	inhibition at 0.05 µM [4]	inhibition at 0.1 µM [4]	inhibition at 0.5 µM [4]	inhibition at 1 µM [4]	inhibition at 5 µM [4]	inhibition at 10 µM [4]	other results
CC1=C(/C=C/C(C)=C/C=C/C(C)=C/C(=O)O)C(C)(C)CCC1 [RA, all-trans retinoic acid, reference compound]	–	–	–	–	–	–	–	–	–	–	–	–	average epidermal thickness ([1]; exposed to RA alone, 70-90 μm in the absence of RA): 275 μm
Cc1ccccc1CC1N=C(c2ccc(F)cc2)c2cc(Cl)ccc2NC1=O (stereo not drawn) [7-Chloro-5-(4-fluorophenyl)-3-(2-methylbenzyl)-1H-benzo[e][1,4]diazepin-2(3H)-one]	–	–	–	–	–	–	–	–	–	–	–	–	EC50 [2]: 7900 nM
CCc1ccc(CC2N=C(c3ccc(F)cc3)c3cc(Cl)ccc3NC2=O)cc1CC (stereo not drawn) [Compound 11, (Z)-7-Chloro-3-(3,4-diethylbenzyl)-5-(4-fluorophenyl)-1H-benzo[e][1,4]diazepin-2(3H)-one]	< 20%	< 20%	< 20%	< 20%	< 20%	≥ 90%	< 20%	< 20%	< 20%	< 20%	≥ 90%	≥ 90%	melting point: 88 to 90 °C
Cc1cccc(C)c1CC1N=C(c2ccc(O)cc2)c2cc(Cl)ccc2N(C)C1=O (stereo not drawn) [Compound 1, (Z)-7-chloro-3-(2,6-dimethylbenzyl)-5-(4-hydroxyphenyl)-1-methyl-1H-benzo[e][1,4]diazepin-2(3H)-one]	< 20%	< 20%	< 20%	< 20%	≥ 90%	≥ 90%	< 20%	< 20%	< 20%	≥ 20%	≥ 90%	≥ 90%	Percent Reduction in Retinoid-Induced Hyperplasia (%) ([1]; 0.5 μM compound H): 40 + 10%; Percent Reduction in Retinoid-Induced Hyperplasia (%) ([1]; 1.0 μM compound H): 48 + 15%; Percent Reduction in Retinoid-Induced Hyperplasia (%) ([1]; 2.0 μM compound H): >95%; EC50 ([3]; Fibroblast, based on the data from the cell proliferation assays, read-out: EC50 against proliferation of human foreskin fibroblasts): 1400 ± 300 nM; EC50 ([4]; based on the data from the cell proliferation assays, read-out: EC50 against proliferation of human keratinocyte cells): 700 ± 100 nM; Toxicity ([5]; 0.5 μM compound H, listed as Compound H): no detectable toxicity; also recorded: None detected; Toxicity ([5]; 1.0 μM compound H, listed as Compound H): no detectable toxicity; also recorded: None detected; Toxicity ([5]; 2.0 μM compound H, listed as Compound H): 2.0 + 0.5; Toxicity ([5]; 2.0 μM compound H, listed as compound H): Slight toxicity
